Columns and labels:
[1] = tested on: ECHOR (seed); assay: Assay for herbicidal activity, paddy pots: ECHOR; format: in vivo, Echinochloa crus-galli var. oryzicola; conditions: for ECHOR (seed) herbicidal activity, visual percentage grading: three weeks after application, 0 untreated control, 100 complete kill
Description: (§1) To evaluate herbicidal activity against the paddy weeds in the paddy rice (ORYSA: Oryza sativa L.), the herbicidal activity of the compounds of the invention was compared to that of the compound No.109 (compound A) disclosed in U.S. Pat. […] The paddy weeds tested were ECHOR (Echinochloa crus-galli var. oryzicola), SCPJU (Scirpus juncoides ROXB), MOOVA (Monochoria vaginalis […] (Cyperus serotinus ROTTB), and SAGPY (Sagittaria pygmaea MTQ). The vessels employed were plastic pots having an area of 140 cm^2 and filled with a sandy loam soil containing 1.2% organic matter (pH 6).

[2] = tested on: CYPSE (tuber); assay: Assay for herbicidal activity, paddy pots: CYPSE; format: in vivo, Cyperus serotinus ROTTB; conditions: three weeks after application, 0 untreated control, 100 complete kill
Description: as §1

[3] = tested on: MOOVA (seed); assay: Assay for herbicidal activity, paddy pots: MOOVA; format: in vivo, Monochoria vaginalis PRESL; conditions: three weeks after application, 0 untreated control, 100 complete kill
Description: as §1

[4] = tested on: SCPJU (seed); assay: Assay for herbicidal activity, paddy pots: SCPJU; format: in vivo, Scirpus juncoides ROXB; conditions: three weeks after application, 0 untreated control, 100 complete kill
Description: as §1

[5] = tested on: SAGPY (tuber); assay: Assay for herbicidal activity, paddy pots: SAGPY; format: in vivo, Sagittaria pygmaea MTQ; conditions: three weeks after application, 0 untreated control, 100 complete kill
Description: as §1

| SMILES | ECHOR (seed) herbicidal activity, visual percentage grading ([1]; 0.016 kg/ha) [%] | ECHOR (seed) herbicidal activity, visual percentage grading ([1]; 0.063 kg/ha) [%] | ECHOR (seed) herbicidal activity, visual percentage grading ([1]; 0.250 kg/ha) [%] | ECHOR (seed) herbicidal activity, visual percentage grading ([1]; 1.000 kg/ha) [%] | ECHOR (seed) herbicidal activity, visual percentage grading ([1]; 4.000 kg/ha) [%] | CYPSE (tuber) herbicidal activity, visual percentage grading ([2]; 0.016 kg/ha) [%] | CYPSE (tuber) herbicidal activity, visual percentage grading ([2]; 0.063 kg/ha) [%] | CYPSE (tuber) herbicidal activity, visual percentage grading ([2]; 0.250 kg/ha) [%] | CYPSE (tuber) herbicidal activity, visual percentage grading ([2]; 1.000 kg/ha) [%] | CYPSE (tuber) herbicidal activity, visual percentage grading ([2]; 4.000 kg/ha) [%] | MOOVA (seed) herbicidal activity, visual percentage grading ([3]; 0.016 kg/ha) [%] | MOOVA (seed) herbicidal activity, visual percentage grading ([3]; 0.063 kg/ha) [%] | MOOVA (seed) herbicidal activity, visual percentage grading ([3]; 0.250 kg/ha) [%] | MOOVA (seed) herbicidal activity, visual percentage grading ([3]; 1.000 kg/ha) [%] | MOOVA (seed) herbicidal activity, visual percentage grading ([3]; 4.000 kg/ha) [%] | SCPJU (seed) herbicidal activity, visual percentage grading ([4]; 0.016 kg/ha) [%] | SCPJU (seed) herbicidal activity, visual percentage grading ([4]; 0.063 kg/ha) [%] | SCPJU (seed) herbicidal activity, visual percentage grading ([4]; 0.250 kg/ha) [%] | SCPJU (seed) herbicidal activity, visual percentage grading ([4]; 1.000 kg/ha) [%] | SCPJU (seed) herbicidal activity, visual percentage grading ([4]; 4.000 kg/ha) [%] | also measured |
| --- | --- | --- | --- | --- | --- | --- | --- | --- | --- | --- | --- | --- | --- | --- | --- | --- | --- | --- | --- | --- | --- |
| Cc1ccsc1C1=NOC(C)(COCc2ccccc2)C1 (stereo not shown) [EXAMPLE 5, 5-benzyloxymethyl-5-methyl-3-(4-methylthiophene-5-yl)-1,2-isoxazoline] | 0 | 30 | 100 | 100 | 100 | 0 | 0 | 30 | 100 | 100 | 0 | 10 | 80 | 90 | 100 | 0 | 10 | 30 | 60 | 100 | SAGPY (tuber) herbicidal activity, visual percentage grading ([5]; 0.016 kg/ha): 0%; SAGPY (tuber) herbicidal activity, visual percentage grading ([5]; 0.063 kg/ha): 0%; SAGPY (tuber) herbicidal activity, visual percentage grading ([5]; 0.250 kg/ha): 20%; SAGPY (tuber) herbicidal activity, visual percentage grading ([5]; 1.000 kg/ha): 50%; SAGPY (tuber) herbicidal activity, visual percentage grading ([5]; 4.000 kg/ha): 70% |
| CC1(COCc2c(F)cccc2F)CC(c2sccc2Br)=NO1 (stereo not shown) [EXAMPLE 19, 5-(2,6-difluorobenzyl)oxymethyl-5-methyl-3-(4-bromothiophene-5-yl)-1,2-isoxazoline] | 100 | 100 | 100 | 100 | 100 | 30 | 90 | 90 | 100 | 100 | 20 | 95 | 100 | 100 | 100 | 0 | 100 | 100 | 100 | 100 | herbicidal activity on ECHOR, in words ([1]; low dose of 0.016 Kg/ha): completely controls the growth of ECHOR; SAGPY (tuber) herbicidal activity, visual percentage grading ([5]; 0.016 kg/ha): 0%; SAGPY (tuber) herbicidal activity, visual percentage grading ([5]; 0.063 kg/ha): 0%; SAGPY (tuber) herbicidal activity, visual percentage grading ([5]; 0.250 kg/ha): 0%; SAGPY (tuber) herbicidal activity, visual percentage grading ([5]; 1.000 kg/ha): 20%; SAGPY (tuber) herbicidal activity, visual percentage grading ([5]; 4.000 kg/ha): 30% |
| Cc1cc(C)c(C2=NOC(C)(COCc3ccccc3F)C2)s1 (stereo not shown) [EXAMPLE 13, 5-(2-fluorobenzyl)oxymethyl-5-methyl-3-(2,4-dimethylthiophene-5-yl)-1,2-isoxazoline] | 50 | 70 | 100 | 100 | 100 | 0 | 0 | 90 | 100 | 100 | 50 | 70 | 80 | 90 | 100 | 30 | 30 | 70 | 90 | 100 | SAGPY (tuber) herbicidal activity, visual percentage grading ([5]; 0.016 kg/ha): 0%; SAGPY (tuber) herbicidal activity, visual percentage grading ([5]; 0.063 kg/ha): 0%; SAGPY (tuber) herbicidal activity, visual percentage grading ([5]; 0.250 kg/ha): 0%; SAGPY (tuber) herbicidal activity, visual percentage grading ([5]; 1.000 kg/ha): 0%; SAGPY (tuber) herbicidal activity, visual percentage grading ([5]; 4.000 kg/ha): 30% |

From US6838416B2, “Herbicidal 5-benzyloxymethyl-1,2-isoxazoline derivatives” (Korea Research Institute of Chemical Technology, priority 2000, dated 2005)
